From US11866450B2, “Modulators of Cystic Fibrosis Transmembrane Conductance regulator, pharmaceutical compositions, methods of treatment, and process for making the modulators” (priority 2018, dated 2024)

Target: CFTR-mediated chloride transport (Homo sapiens, UniProt P13569)
Format: cell-based
Conditions: enteroid cells incubated with test compound 18-24 hours, acute 10 μM forskolin and 300 nM Compound III; for Max. Activity: % of chloride transport with 3 μM Compound A, 3 μM Compound II and 300 nM acute Compound III triple combination control
How it was run: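 Human intestinal enteroid cells incubated with compound 18–24 h at 37° C., then membrane potential dye (FLIPR) read 15 min after chloride-free stimulation with 10 μM forskolin, 100 μM IBMX and 300 nM Compound III. AUC expressed as % of triple-combination control (3 μM Compound A, 3 μM Compound II, 300 nM Compound III).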

Chain of CFTR-mediated chloride transport (P13569 whole entry, looked up): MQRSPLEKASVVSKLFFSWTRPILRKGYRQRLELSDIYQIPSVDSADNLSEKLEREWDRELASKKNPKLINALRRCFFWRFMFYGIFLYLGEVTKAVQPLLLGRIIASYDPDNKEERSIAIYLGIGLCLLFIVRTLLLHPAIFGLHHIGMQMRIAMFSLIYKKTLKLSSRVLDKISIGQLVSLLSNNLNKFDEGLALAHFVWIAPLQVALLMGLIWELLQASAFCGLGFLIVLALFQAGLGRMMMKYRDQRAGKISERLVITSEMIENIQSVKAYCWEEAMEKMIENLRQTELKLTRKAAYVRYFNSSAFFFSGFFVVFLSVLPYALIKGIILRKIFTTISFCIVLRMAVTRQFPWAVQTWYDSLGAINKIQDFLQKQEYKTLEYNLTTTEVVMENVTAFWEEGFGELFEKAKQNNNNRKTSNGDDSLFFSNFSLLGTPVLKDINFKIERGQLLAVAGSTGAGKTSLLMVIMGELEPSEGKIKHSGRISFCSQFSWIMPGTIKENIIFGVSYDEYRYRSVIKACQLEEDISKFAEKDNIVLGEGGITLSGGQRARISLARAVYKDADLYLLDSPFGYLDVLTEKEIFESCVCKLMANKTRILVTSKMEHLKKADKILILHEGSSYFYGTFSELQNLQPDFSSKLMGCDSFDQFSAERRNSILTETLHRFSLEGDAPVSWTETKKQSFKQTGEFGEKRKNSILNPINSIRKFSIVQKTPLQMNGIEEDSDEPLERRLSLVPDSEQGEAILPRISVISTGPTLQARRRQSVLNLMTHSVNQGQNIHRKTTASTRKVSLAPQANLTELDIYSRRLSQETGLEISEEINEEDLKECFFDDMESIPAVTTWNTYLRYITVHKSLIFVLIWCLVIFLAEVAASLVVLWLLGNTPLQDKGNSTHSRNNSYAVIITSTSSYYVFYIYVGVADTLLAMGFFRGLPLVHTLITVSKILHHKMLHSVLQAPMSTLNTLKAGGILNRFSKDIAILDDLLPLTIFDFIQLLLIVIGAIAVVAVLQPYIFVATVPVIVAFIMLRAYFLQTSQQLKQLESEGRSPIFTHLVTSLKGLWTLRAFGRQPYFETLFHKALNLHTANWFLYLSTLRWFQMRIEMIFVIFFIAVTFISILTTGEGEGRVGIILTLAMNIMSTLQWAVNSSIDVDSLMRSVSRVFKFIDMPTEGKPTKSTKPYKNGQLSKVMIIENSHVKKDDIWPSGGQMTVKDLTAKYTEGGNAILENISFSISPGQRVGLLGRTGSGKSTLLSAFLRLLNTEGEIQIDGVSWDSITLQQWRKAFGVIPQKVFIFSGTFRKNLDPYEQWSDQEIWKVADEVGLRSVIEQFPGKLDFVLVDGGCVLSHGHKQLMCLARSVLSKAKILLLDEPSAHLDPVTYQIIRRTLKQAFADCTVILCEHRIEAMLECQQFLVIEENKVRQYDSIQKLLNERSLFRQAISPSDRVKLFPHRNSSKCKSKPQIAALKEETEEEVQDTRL

Row | Compound | EC50 | Max. Activity
1 | CC1(C)C[C@H]2CCCCn3ccc(n3)S(=O)(=O)NC(=O)c3ccc(-n4ccc(OCCCC5(C(F)(F)F)CC5)n4)nc3N1C2 (single isomer, unassigned) [Compound 277, 21,21-dimethyl-4-(3-{3-[1-(trifluoromethyl)cyclopropyl]propoxy}-1H-pyrazol-1-yl)-10λ^6-thia-1,3,9,14,23-pentaazatetracyclo[17.2.1.111,14.02,7]tricosa-2,4,6,11(23),12-pentaene-8,10,10-trione] | > 3000 nM | + (+ is <30%)
2 | CC1(C)C[C@H]2CCn3ccc(n3)S(=O)(=O)NC(=O)c3ccc(-n4ccc(OCCCC5(C(F)(F)F)CC5)n4)nc3N1C2 (single isomer, unassigned) [Compound 278, 19,19-dimethyl-4-(3-{3-[1-(trifluoromethyl)cyclopropyl]propoxy}-1H-pyrazol-1-yl)-10λ^6-thia-1,3,9,14,21-pentaazatetracyclo[15.2.1.111,14.02,7]henicosa-2,4,6,11(21),12-pentaene-8,10,10-trione] | > 3000 nM | + (+ is <30%)
3 | CC1(C)C[C@H]2CCn3ccc(n3)S(=O)(=O)NC(=O)c3ccc(-n4ccc(OCCCC5(C(F)(F)F)CC5)n4)nc3N1C2 (single isomer, unassigned) [Compound 279, 19,19-dimethyl-4-(3-{3-[1-(trifluoromethyl)cyclopropyl]propoxy}-1H-pyrazol-1-yl)-10λ^6-thia-1,3,9,14,21-pentaazatetracyclo[15.2.1.111,14.02,7]henicosa-2,4,6,11(21),12-pentaene-8,10,10-trione] | < 1000 nM | ++ (++ is 30-60%)
4 | CC1(C)C[C@@H]2CCCNc3cccc(n3)S(=O)(=O)NC(=O)c3ccc(-n4ccc(OC[C@@H](O)CC5(C(F)(F)F)CC5)n4)nc3N1C2 (single isomer, unassigned) [Compound 283] | < 1000 nM | +++ (+++ is >60%)
5 | CC1(C)C[C@@H]2CCCNc3cccc(n3)S(=O)(=O)NC(=O)c3ccc(-n4ccc(OC[C@@H](O)CC5(C(F)(F)F)CC5)n4)nc3N1C2 (single isomer, unassigned) [Compound 284] | < 1000 nM | +++ (+++ is >60%)
6 | Cc1c2cnn1CCCC1CN(c3nc(-n4ccc(OCC(C)(C)C(F)(F)F)n4)ccc3C(=O)NS2(=O)=O)C(C)(C)C1 (single isomer, unassigned) [Compound 285, 20,20,22-trimethyl-4-[3-(3,3,3-trifluoro-2,2-dimethylpropoxy)-1H-pyrazol-1-yl]-10λ^6-thia-1,3,9,13,14-pentaazatetracyclo[16.2.1.111,14.02,7]docosa-2,4,6,11(22),12-pentaene-8,10,10-trione] | < 1000 nM | + (+ is <30%)
7 | Cc1c2cnn1CCCC1CN(c3nc(-n4ccc(OCC(C)(C)C(F)(F)F)n4)ccc3C(=O)NS2(=O)=O)C(C)(C)C1 (single isomer, unassigned) [Compound 286, 20,20,22-trimethyl-4-[3-(3,3,3-trifluoro-2,2-dimethylpropoxy)-1H-pyrazol-1-yl]-10λ^6-thia-1,3,9,13,14-pentaazatetracyclo[16.2.1.111,14.02,7]docosa-2,4,6,11(22),12-pentaene-8,10,10-trione] | < 1000 nM | + (+ is <30%)
8 | Cc1c2cnn1CCCC1CN(c3nc(-n4ccc(OCC(C)(C)C(F)(F)F)n4)ccc3C(=O)NS2(=O)=O)C(C)(C)C1 (single isomer, unassigned) [Compound 288, 20,20,22-trimethyl-4-[3-(3,3,3-trifluoro-2,2-dimethylpropoxy)-1H-pyrazol-1-yl]-10λ^6-thia-1,3,9,13,14-pentaazatetracyclo[16.2.1.111,14.02,7]docosa-2,4,6,11(22),12-pentaene-8,10,10-trione] | 1000 to 3000 nM | + (+ is <30%)
9 | Cc1c2cnn1CCCC1CN(c3nc(-n4ccc(OCC(C)(C)C(F)(F)F)n4)ccc3C(=O)NS2(=O)=O)C(C)(C)C1 (single isomer, unassigned) [Compound 289, 20,20,22-Trimethyl-4-[3-(3,3,3-trifluoro-2,2-dimethylpropoxy)-1H-pyrazol-1-yl]-10λ^6-thia-1,3,9,13,14-pentaazatetracyclo[16.2.1.111,14.02,7]docosa-2,4,6,11(22),12-pentaene-8,10,10-trione] | < 1000 nM | ++ (++ is 30-60%)
10 | Cc1nn2cc1S(=O)(=O)NC(=O)c1ccc(-n3ccc(OCC(C)(C)C(F)(F)F)n3)nc1N1C[C@H](CCC2)CC1(C)C (single isomer, unassigned) [Compound 290, 12,20,20-trimethyl-4-[3-(3,3,3-trifluoro-2,2-dimethylpropoxy)-1H-pyrazol-1-yl]-10λ^6-thia-1,3,9,13,14-pentaazatetracyclo[16.2.1.111,14.02,7]docosa-2,4,6,11(22),12-pentaene-8,10,10-trione] | > 3000 nM | + (+ is <30%)
11 | Cc1nn2cc1S(=O)(=O)NC(=O)c1ccc(-n3ccc(OCC(C)(C)C(F)(F)F)n3)nc1N1C[C@H](CCC2)CC1(C)C (single isomer, unassigned) [Compound 291, 12,20,20-trimethyl-4-[3-(3,3,3-trifluoro-2,2-dimethylpropoxy)-1H-pyrazol-1-yl]-10λ^6-thia-1,3,9,13,14-pentaazatetracyclo[16.2.1.111,14.02,7]docosa-2,4,6,11(22),12-pentaene-8,10,10-trione] | < 1000 nM | ++ (++ is 30-60%)
12 | CC1(C)C[C@@H]2CCCNc3cccc(n3)S(=O)(=O)NC(=O)c3ccc(-n4ccc(OC[C@@H](O)C5C6(CC6)C56CC6)n4)nc3N1C2 (single isomer, unassigned) [Compound 293] | < 1000 nM | +++ (+++ is >60%)
13 | CC1(C)C[C@@H]2CCCNc3cccc(n3)S(=O)(=O)NC(=O)c3ccc(-n4ccc(OC[C@@H](O)C5C6(CC6)C56CC6)n4)nc3N1C2 (single isomer, unassigned) [Compound 294] | 1000 to 3000 nM | +++ (+++ is >60%)
14 | CC1(C)C[C@@H]2CCCNc3cccc(n3)S(=O)(=O)NC(=O)c3ccc(-n4ccc(OCC[C@@H](O)C5(C(F)(F)F)CC5)n4)nc3N1C2 (single isomer, unassigned) [Compound 296] | < 1000 nM | +++ (+++ is >60%)
15 | CC1(C)C[C@@H]2CCCNc3cccc(n3)S(=O)(=O)NC(=O)c3ccc(-n4ccc(OCC[C@@H](O)C5(C(F)(F)F)CC5)n4)nc3N1C2 (single isomer, unassigned) [Compound 297] | < 1000 nM | +++ (+++ is >60%)
16 | CC1(C)C[C@@H]2CN1c1nc(-n3ccc(OCCC4(C(F)(F)F)CC4)n3)ccc1C(=O)NS(=O)(=O)c1ccn(n1)CCO2 (single isomer, unassigned) [Compound 302, 20,20-Dimethyl-4-(3-{2-[1-(trifluoromethyl)cyclopropyl]ethoxy}-1H-pyrazol-1-yl)-17-oxa-10λ^6-thia-1,3,9,14,22-pentaazatetracyclo[16.2.1.111,14.02,7]docosa-2(7),3,5,11(22),12-pentaene-8,10,10-trione] | > 3000 nM | + (+ is <30%)
